The numbers were not newly measured in patent US5496811A, “Submicron emulsions as ocular drug delivery vehicles” (priority 1992, dated 1996), which cites them from elsewhere.

Each structure is given as a SMILES string.

As to `COc1ccc2c(c1)c(CC(=O)O)c(C)n2C(=O)c1ccc(Cl)cc1` [Indomethacin], the solubility in water result was “practically insoluble in water”. Under “alkaline solutions”, the “solubility in alkaline solutions” value was “soluble in alkaline solutions” and the “stability in alkaline solutions” value is listed as “unstable under these conditions”.

Turning to `CCC1C(=O)OCC1Cc1cncn1C` (centres unmarked) [Pilocarpine, 3-ethyldihydro-4-[(1-methyl-1H-imidazole-5-yl)methyl]-2(3H)-furanon], the solubility in water result was “soluble in water”. Moreover, the solubility in oil entry (oil) is recorded as “sparingly soluble in oil”.
